# From PubChem BioAssay (NCI)
# Several values for one entry are separate records, joined by “and”; a condition that tells them apart may be missing. Equal values may be shown once.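 The compound was tested at five concentrations on cells cultured in 96-well plates, with a 48-hour exposure period. GI50 is the concentration that inhibits growth by half. The concentration for full growth arrest is given as TGI.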
# What was measured:
# Assay in all cases: DTP human tumour cell line panel, 48 h
# OVCAR-8 ovarian = tested on: OVCAR-8 ovarian
# IGROV1 ovarian = tested on: IGROV1 ovarian
# OVCAR-5 ovarian = tested on: OVCAR-5 ovarian
# MOLT-4 leukemia = tested on: MOLT-4 leukemia
# NCI-H23 lung = tested on: NCI-H23 lung
# SF-295 CNS = tested on: SF-295 CNS
# OVCAR-4 ovarian = tested on: OVCAR-4 ovarian
# A498 renal = tested on: A498 renal
# 786-0 renal = tested on: 786-0 renal
# SN12C renal = tested on: SN12C renal
SMILES,GI50 (OVCAR-8 ovarian),TGI (OVCAR-8 ovarian),GI50 (IGROV1 ovarian),TGI (IGROV1 ovarian),GI50 (OVCAR-5 ovarian),TGI (OVCAR-5 ovarian),GI50 (MOLT-4 leukemia),GI50 (NCI-H23 lung),TGI (NCI-H23 lung),GI50 (SF-295 CNS),TGI (SF-295 CNS),GI50 (OVCAR-4 ovarian),TGI (OVCAR-4 ovarian),GI50 (A498 renal),TGI (A498 renal),GI50 (786-0 renal),TGI (786-0 renal),GI50 (SN12C renal),TGI (SN12C renal),TGI (MOLT-4 leukemia)
COc1ccccc1/C=C/C(=O)/C=C/c1ccccc1O,1260 nM,10.4 µM,344 nM,1.92 µM,2160 nM,4.39 µM,163 nM,1500 nM,4.1 µM,1990 nM,5.23 µM,1170 nM,8.83 µM,1800 nM,3.32 µM,1600 nM,3.41 µM,1660 nM,5.65 µM,
Cc1ccc(S(=O)(=O)N/N=C(\c2nc3ccc([N+](=O)[O-])cc3[nH]c2=O)C(O)c2ccccc2Cl)cc1 (centres undefined),,> 100 µM,,> 100 µM,,> 100 µM,,,> 100 µM,,> 100 µM,,> 100 µM,,> 100 µM,,> 100 µM,,> 100 µM,> 100 µM
O=C1C2=C(c3ccccc31)C(c1ccccc1Cl)N1C(=O)CCSC1=N2 (centres undefined),,> 100 µM,,> 100 µM,,> 100 µM,,,> 100 µM,,> 100 µM,,> 100 µM,,> 100 µM,,> 100 µM,,> 100 µM,> 100 µM
Cc1ccc2nc3c(Cl)c(C)c(=O)cc-3sc2c1,,> 100 µM,> 100000 nM,> 100 µM,73700 nM,> 100 µM,,23700 nM,> 100 µM,,> 100 µM,61700 nM,> 100 µM,,> 100 µM,96300 nM,> 100 µM,69000 nM,> 100 µM,> 100 µM
COc1cccc(/C=C2\CCC(C)(CN(C)C)C2=O)c1 (centres undefined),,> 100 µM,,> 100 µM,,> 100 µM,,,> 100 µM,,> 100 µM,,> 100 µM,,> 100 µM,,> 100 µM,,> 100 µM,> 100 µM
CCOC(=O)c1ccc(N[C@@H]2c3cc4c(cc3C(C3=CC(=O)C(=O)C(OC)=C3)[C@H]3C(=O)OCC32)OCO4)cc1 (some centres undefined),,15.9 µM,,28.5 µM,,36.1 µM,,,4.21 µM,,6.87 µM,,> 83 µM,,13 µM,,4.09 µM,,> 21.1 µM,> 37.7 µM
Cn1c([N+](=O)[O-])cnc1/C=C1\Oc2cc(Cl)ccc2C1=O,401 nM,> 100 µM,783 nM,> 20.2 µM,2470 nM,7.84 µM,212 nM,766 nM,4.47 µM,2720 nM,> 42.7 µM,2480 nM,> 21.5 µM,1950 nM,9.97 µM,1080 nM,4.75 µM,713 nM,6.65 µM,2.32 µM
CCN(CC)CCNC(=O)c1c(C)[nH]c(/C=C2\C(=O)Nc3ccc(F)cc32)c1C,9050 nM and 2810 nM and 6090 nM,> 10 µM and 6.95 µM and 23.1 µM,1480 nM and 2630 nM and 2050 nM,> 10 µM and 20 µM and 15.9 µM,4100 nM and 2350 nM and 3570 nM,> 10 µM and 8.72 µM and 18.1 µM,1100 nM and 2730 nM and 1700 nM,3880 nM and 2600 nM and 2390 nM,> 10 µM and 9.21 µM and 14.5 µM,> 10000 nM and 4090 nM and 10200 nM,> 10 µM and 8.23 µM and 24.1 µM,> 10000 nM and 2410 nM and 2760 nM,> 10 µM and 9.23 µM and 15 µM,> 10000 nM and 2210 nM and 2840 nM,> 10 µM and 4.83 µM and 15.4 µM,4130 nM and 3070 nM and 2300 nM,> 10 µM and 6.16 µM and 7.76 µM,1950 nM and 1240 nM and 2230 nM,> 10 µM and 20 µM and 16.2 µM,> 10 µM and 20 µM and 9.05 µM
C=C1CC2(OC1=O)C(=O)N(CCCN1C(=O)C3(CC(=C)C(=O)O3)c3ccccc31)c1ccccc12 (centres undefined),1350 nM,5.49 µM,1320 nM,2.68 µM,2070 nM,4.55 µM,419 nM,2340 nM,6.14 µM,13200 nM,26 µM,1520 nM,3.14 µM,3120 nM,17 µM,1680 nM,3.9 µM,2290 nM,6.26 µM,1.93 µM
O=C(/C=C/c1ccccc1)CC(c1ccccc1)N1CCOCC1 (centres undefined),4570 nM,17.3 µM,2140 nM,5.78 µM,9790 nM,22.1 µM,3120 nM,2000 nM,4.4 µM,2700 nM,10.5 µM,9680 nM,23.3 µM,12900 nM,26.2 µM,1950 nM,3.61 µM,4250 nM,14.8 µM,9.87 µM
COc1cc2cnc3c4ccccc4ccc3c2cc1OC,,> 100 µM,,> 100 µM,,> 100 µM,,,> 100 µM,,> 100 µM,,> 100 µM,,> 100 µM,,> 100 µM,,> 100 µM,> 100 µM
N=S(c1ccccc1)c1ccccc1[N+](=O)[O-] (centres undefined),,51.5 µM,,32.9 µM,,34.7 µM,,,35.2 µM,,36.7 µM,,28.4 µM,,> 100 µM,,30.3 µM,,29.2 µM,64.3 µM
Cc1nc(Nc2n[nH]c3c2CN(C(=O)N[C@H](CN(C)C)c2ccccc2)C3(C)C)c2sccc2n1,83.9 nM and 306 nM,> 10 µM and 15.6 µM,12.7 nM and 24.7 nM,> 3.53 µM and 16.7 µM,68.6 nM and 322 nM,> 8.88 µM and 25.2 µM,92 nM and 276 nM,13.6 nM and 20.7 nM,2.8 µM and 4.42 µM,78 nM and 66 nM,> 10 µM and 8.62 µM,615 nM and 1390 nM,> 6.95 µM and 8.37 µM,,1.85 µM and 3.25 µM,281 nM and 820 nM,4.75 µM and 4.45 µM,19.3 nM and < 17.6 nM,> 4.66 µM and 3.84 µM,9.74 µM and 7.04 µM
CCN(CC)CC(=O)N1CCc2c([nH]c3ccccc23)C1c1cccnc1 (centres undefined),,> 100 µM,,> 100 µM,,> 100 µM,,,> 100 µM,,> 100 µM,,> 100 µM,,> 100 µM,,> 100 µM,,> 100 µM,> 100 µM
CCOC1Oc2ccccc2-c2oc(=O)c(Sc3ccc(C)cc3)cc21 (centres undefined),51000 nM,> 100 µM,26000 nM,> 100 µM,> 100000 nM,> 100 µM,6730 nM,40400 nM,> 100 µM,19200 nM,> 100 µM,25100 nM,> 100 µM,34400 nM,> 100 µM,36300 nM,> 100 µM,29500 nM,> 100 µM,28.3 µM
COc1ccc(Nc2nc3ccccc3nc2-c2cccs2)cc1,,> 100 µM,,> 100 µM,,> 100 µM,,,> 100 µM,,> 100 µM,,> 100 µM,,> 100 µM,,> 100 µM,,> 100 µM,> 100 µM
